TGI and GI50 data for 16 compounds are collected here from PubChem BioAssay (NCI).

Molecules are shown by their SMILES. “And” between values parts separate entries of the source, which are not always exact repeats. Identical values can stand only once.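 Grown in 96-well plates, cells were treated for 48 hours with each compound at five concentrations. Insufficient inhibition: endpoint recorded as highest concentration tested. GI50 marks 50% less growth. TGI is the concentration that stops growth completely.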

Holding throughout (assay): DTP human tumour cell line panel, 48 h
The test system of assay [1] is HT29 colon.
In assay [2] the test system is HCT-116 colon.
In assay [3] the test system is SK-MEL-28 melanoma.
Assay [4] deals with MDA-MB-435.
Assay [5] has as its system MALME-3M melanoma.
For assay [6], the system named is HCT-15 colon.
Assay [7] deals with RXF 393 renal.
Assay [8] deals with SNB-75 CNS.
Assay [9] deals with OVCAR-4 ovarian.

The TGI is the concentration giving total growth inhibition. Read a low TGI as more potent growth arrest. Regarding `C=CCn1c(-c2ccc([N+](=O)[O-])cc2)cs/c1=N\C(P(=O)(O)O)P(=O)(O)O`, the TGI in assay [1], in [2], in [3], in assay [4], in assay [5] and in [6] was over 100 µM each time. In addition, the TGI in [7] and in [8] was over 100 µM in each case.
For the compound `N#Cc1cc(C#N)c(N)nc1N`, the TGI in assay [1], in [2], in [4], in assay [5], in assay [6] and in assay [7] was over 100 µM throughout. Also, the TGI in assay [9] and in [8] was over 100 µM in each case.
With `c1ccc([P+](CCSCCSCC[P+](c2ccccc2)(c2ccccc2)c2ccccc2)(c2ccccc2)c2ccccc2)cc1`, the TGI in assay [1], in assay [2], in assay [3], in assay [4], in assay [6] and in [7] was over 100 µM in each case. The total growth inhibition concentration (TGI) in [9] and in [8] was over 100 µM each time.
Regarding `N#Cc1nc(CCN2C(=O)c3ccccc3C2=O)oc1N`, the concentration for total growth inhibition (TGI) in assay [1], in assay [2], in [3], in assay [4], in assay [5] and in assay [6] was over 100 µM throughout. The TGI in assay [7] and in [9] was over 100 µM in each case.
As for `CCOc1cc(C2SCC(=O)N2c2ccc(Oc3ccc(Cl)cc3)c(Cl)c2)ccc1O` (centres undefined), the TGI in assay [1] worked out at 31.8 µM; in assay [2], 25.1 µM; in [3], 38.2 µM; in assay [4], 42 µM; in assay [5] it was 32.4 µM; in assay [6] it was 37 µM. Also, the results for the TGI in assay [9] and in [8] were 31.1 µM and 37.3 µM, respectively.
As to `C#C[C@]1(O)CC[C@H]2[C@@H]3CCC4=C/C(=N/OCCN(C)C)CC[C@]4(C)[C@H]3CC[C@@]21C`, the total growth inhibition concentration (TGI) in assay [1] is over 100 µM; in [2], over 100 µM; in assay [3] it was over 100 µM; in [4] it was 32.2 µM; in [5], 60.6 µM; in assay [6], over 100 µM. Moreover, the TGI in [9] and in assay [8] was over 100 µM throughout.
As for `COc1cc(NS(C)(=O)=O)ccc1Nc1cc[nH]c2ccc3nccc3c12`, the TGI was 31.3 µM in assay [1]; 24.7 µM in [2]; 31.2 µM in assay [3]; 30.1 µM in [4]; 28.7 µM in assay [5]; over 100 µM in [6]. In assay [9], this compound came in with a TGI of 29.7 µM.
For the compound `Cc1ccn2c(=O)cc(CN3CCOCC3)nc2c1`, the TGI in [1], in assay [2], in assay [3], in [4], in assay [5] and in assay [6] was over 100 µM throughout. For the same compound, the TGI in assay [9] and in assay [8] was over 100 µM in each case.
For the compound `CC(=O)O[C@H]1C(=O)[C@@]2(C)[C@H]([C@H](OC(=O)c3cccc([N+](=O)[O-])c3)[C@]3(O)C[C@H](OC(=O)[C@H](O)[C@@H](NC(=O)c4ccccc4)c4ccccc4)C(C)=C1C3(C)C)[C@]1(OC(C)=O)CO[C@@H]1C[C@@H]2O`, the TGI is over 25 µM in [2]; over 25 µM in assay [3]; 0.0114 µM in assay [4]; over 25 µM in assay [6]; over 25 µM in [9]; 0.295 µM in [8].
With `Cc1nc(N)c(N2CCN(C(=O)O)CC2)c(=O)[nH]1`, the TGI in [1], in assay [2], in assay [3], in assay [4], in assay [5] and in assay [6] was over 100 µM each time. For the same compound, the concentration for total growth inhibition (TGI) in assay [9] and in [8] was over 100 µM in each case.
Take `CCc1ccccc1N=NC(=O)NNc1ccccc1CC`: the TGI is 40.8 µM in [1]; 29 µM in assay [2]; 32.2 µM in assay [3]; 49 µM in assay [4]; 32.7 µM in assay [5]; 38.1 µM in assay [6]. For the same compound, the TGI in [9] is 69.8 µM; in [8] it was 45.7 µM.
For the compound `CCc1n[nH]c(=O)n1/N=C/c1ccccc1O`, the TGI in [2], in assay [3], in assay [4], in [6], in assay [7] and in assay [9] was over 100 µM in each case. The TGI in assay [8] is over 100 µM.
Take `CC(NC(=O)/C(=C/c1ccccc1)NC(=O)c1ccccc1)C(=O)O` (centres undefined): the concentration for total growth inhibition (TGI) in assay [1], in [2], in [3], in assay [4], in [5] and in assay [6] was over 100 µM in each case. Further, the total growth inhibition concentration (TGI) in assay [7] and in assay [8] was over 100 µM in each case.
For orientation: GI50 means the concentration giving 50% growth inhibition. Turning to `O=[N+]([O-])c1cccc2nc3ccccc3c(NCCCn3ccnc3[N+](=O)[O-])c12`, the total growth inhibition concentration (TGI) in assay [1] was 0.00124 µM; in [2], 0.00198 µM and 0.0188 µM; in [4], 0.000231 µM; in [5] it was 0.00107 µM; in [7], 0.000768 µM; in assay [9], 0.0735 µM and 0.171 µM. Besides, the TGI in [8] came out at 0.0775 µM. In addition, the GI50 is 45.4 µM in assay [3] and 0.0203 µM in assay [9].
In the case of `CC#CC(O)(C(=O)OCCCN(C)C)C1CCCCC1` (centres undefined), the TGI in assay [1], in assay [2], in assay [3], in assay [4], in [5] and in assay [6] was over 100 µM each time. For the same compound, the TGI in assay [7] and in assay [8] was over 100 µM in each case.
`NC(Cc1ccc(OCc2ccccc2)cn1)C(=O)O` (centres undefined): the TGI in assay [1], in assay [2], in assay [3], in assay [4], in [5] and in [6] was over 100 µM in each case. This compound yielded a TGI in assay [7] of over 100 µM.
